According to patent US9409905B2, “Antibacterial compounds and methods for use” (PTC THERAPEUTICS, INC., priority 2011, dated 2016):
Converted amounts (≈) assume the structure as drawn.

Key:
E. coli 25922 = assay: Antibacterial activity, microbroth dilution MIC (Table 1); assay type: cell-based, Escherichia coli; conditions: Escherichia coli; microbroth dilution; control Gram-negative E. coli 25922 strain; read-out: MIC, 25922
How it was run: (§1)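 Broth microdilution against S. aureus 29213, E. coli 25922 and hypersensitive E. coli BAS849. MIC in μg/mL is the lowest drug concentration preventing macroscopically visible growth under test conditions.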

E. coli LZ3111 = assay: Antibacterial activity, MIC, quinolone resistant strain (Table 2); assay type: cell-based; conditions: Escherichia coli, LZ3111, read-out: MIC LZ3111
How it was run: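 MIC values (μg/mL) came from a microbroth dilution assay, scored as the lowest drug concentration at which no growth was visible by eye.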

[1] = tested on: Staphylococcus aureus (S. aureus) 29213; assay: Antibacterial activity, microbroth dilution MIC (Table 1); assay type: cell-based; conditions: microbroth dilution, Gram-positive S. aureus 29213, read-out: MIC, 29213
How it was run: as §1

[2] = tested on: Escherichia coli (E. coli) BAS849; assay: as above; assay type: cell-based; conditions: microbroth dilution, super sensitive Gram-negative E. coli BAS849, read-out: MIC, BAS849
How it was run: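 Microbroth dilution was used. MIC, in μg/mL, is the lowest drug concentration preventing macroscopically visible growth under the test conditions.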

SMILES	MIC (E. coli 25922)	MIC (E. coli LZ3111)	MIC [1]	MIC [2]
CCc1cc(C(=O)O)c(=O)[nH]c1-c1ccc2c(c1)cc(CN1CCN(C(C)C)CC1)n2C [Cpd 141, 5-ethyl-6-(2-((4-isopropylpiperazin-1-yl)methyl)-1-methyl-1H-indol-5-yl)-2-oxo-1,2-dihydropyridine-3-carboxylic acid]	1 to 3.5 µg/mL (≈ 2.29 to 8.02 µM)	12.5 to 150 µg/mL (≈ 28.6 to 344 µM)	12.5 to 150 µg/mL (≈ 28.6 to 344 µM)	< 1 µg/mL
Cn1c(CN2CCCC2)cc2cc(-c3[nH]c(=O)c(C(=O)O)c(O)c3-c3ccc(F)cc3)ccc21 [Cpd 309, 5-(4-fluorophenyl)-4-hydroxy-6-(1-methyl-2-(pyrrolidin-1-ylmethyl)-1H-indol-5-yl)-2-oxo-1,2-dihydropyridine-3-carboxylic acid]	3.5 to 12.5 µg/mL (≈ 7.58 to 27.1 µM)	12.5 to 150 µg/mL (≈ 27.1 to 325 µM)	12.5 to 150 µg/mL (≈ 27.1 to 325 µM)	< 1 µg/mL
CCc1c(-c2ccc3c(c2)cc(CN[C@@H](C)c2ccccc2)n3C)[nH]c(=O)c(C(=O)O)c1O.Cl [Cpd 216, (S)-5-ethyl-4-hydroxy-6-(1-methyl-2-((1-phenylethylamino)methyl)-1H-indol-5-yl)-2-oxo-1,2-dihydropyridine-3-carboxylic acid hydrochloride]	1 to 3.5 µg/mL	12.5 to 150 µg/mL	1 to 3.5 µg/mL	< 1 µg/mL
CCc1c(-c2ccc3c(c2)cc(CN2CC(C(=O)O)C2)n3C)[nH]c(=O)c(C(=O)O)c1O [Cpd 269, 6-(2-((3-carboxyazetidin-1-yl)methyl)-1-methyl-1H-indol-5-yl)-5-ethyl-4-hydroxy-2-oxo-1,2-dihydropyridine-3-carboxylic acid]	12.5 to 150 µg/mL (≈ 29.4 to 353 µM)	12.5 to 150 µg/mL (≈ 29.4 to 353 µM)	12.5 to 150 µg/mL (≈ 29.4 to 353 µM)	3.5 to 12.5 µg/mL (≈ 8.23 to 29.4 µM)
CCc1c(-c2ccc3c(c2)cc(CN2CCC(N(C)C)C2)n3C)[nH]c(=O)c(C(=O)O)c1N (stereo not shown) [Cpd 332, 4-amino-6-(2-((3-(dimethylamino)pyrrolidin-1-yl)methyl)-1-methyl-1H-indol-5-yl)-5-ethyl-2-oxo-1,2-dihydropyridine-3-carboxylic acid]	12.5 to 150 µg/mL (≈ 28.6 to 343 µM)	12.5 to 150 µg/mL (≈ 28.6 to 343 µM)	12.5 to 150 µg/mL (≈ 28.6 to 343 µM)	3.5 to 12.5 µg/mL (≈ 8 to 28.6 µM)
CCc1c(-c2ccc3c(c2)c(C#N)c(N2CCCC2)n3C)[nH]c(=O)c(C(=O)O)c1O [Cpd 360, 6-(3-cyano-1-methyl-2-(pyrrolidin-1-yl)-1H-indol-5-yl)-5-ethyl-4-hydroxy-2-oxo-1,2-dihydropyridine-3-carboxylic acid]	12.5 to 150 µg/mL (≈ 30.8 to 369 µM)	12.5 to 150 µg/mL (≈ 30.8 to 369 µM)	1 to 3.5 µg/mL (≈ 2.46 to 8.61 µM)	3.5 to 12.5 µg/mL (≈ 8.61 to 30.8 µM)
CCc1cc(C(=O)O)c(=O)[nH]c1-c1ccc2ccn(C)c2c1 [Cpd 7, 5-ethyl-6-(1-methyl-1H-indol-6-yl)-2-oxo-1,2-dihydropyridine-3-carboxylic acid]	12.5 to 150 µg/mL (≈ 42.2 to 506 µM)	12.5 to 150 µg/mL (≈ 42.2 to 506 µM)	12.5 to 150 µg/mL (≈ 42.2 to 506 µM)	1 to 3.5 µg/mL (≈ 3.37 to 11.8 µM)
CCc1cc(C(=O)O)c(=O)[nH]c1-c1ccc2c(c1)cc1n2CCC1N1CCCC1 (stereo not shown) [Cpd 151, 5-ethyl-2-oxo-6-(1-(pyrrolidin-1-yl)-2,3-dihydro-1H-pyrrolo[1,2-a]indol-7-yl)-1,2-dihydropyridine-3-carboxylic acid]	1 to 3.5 µg/mL (≈ 2.55 to 8.94 µM)	12.5 to 150 µg/mL (≈ 31.9 to 383 µM)	12.5 to 150 µg/mL (≈ 31.9 to 383 µM)	< 1 µg/mL
CCc1cc(C(=O)O)c(=O)[nH]c1-c1cc2cc(CN(C)C)n(C)c2cc1C [Cpd 96, 6-(2-((dimethylamino)methyl)-1,6-dimethyl-1H-indol-5-yl)-5-ethyl-2-oxo-1,2-dihydropyridine-3-carboxylic acid]	12.5 to 150 µg/mL (≈ 34 to 408 µM)	12.5 to 150 µg/mL (≈ 34 to 408 µM)	12.5 to 150 µg/mL (≈ 34 to 408 µM)	12.5 to 150 µg/mL (≈ 34 to 408 µM)
CCc1cc(C(=O)O)c(=O)[nH]c1-c1ccc2c(c1)cc(CNCc1ccccn1)n2C [Cpd 120, 5-ethyl-6-(1-methyl-2-((pyridin-2-ylmethylamino)methyl)-1H-indol-5-yl)-2-oxo-1,2-dihydropyridine-3-carboxylic acid]	< 1 µg/mL	12.5 to 150 µg/mL (≈ 30 to 360 µM)	3.5 to 12.5 µg/mL (≈ 8.4 to 30 µM)	< 1 µg/mL
